Source: US8202873B2, “2-[4-(pyrazol-4-ylalkyl)piperazin-1-yl]-3-phenyl pyrazines as 5-HT7 receptor antagonists” (Eli Lilly and Company, priority 2007, dated 2012)
Marks after values point to notes of the source that are not given here.

How the values were obtained:
adult male CF-1 mice = experiment: Foot electroshock stress induced cGMP elevation model for anxiety; assay type: in vivo; conditions: normalized to vehicle/no stress group, mean
Description: The foot electroshock stress induced cGMP elevation model for anxiety is an established anxiety model, wherein stress from an unavoidable electroshock to the feet induces an elevation in cerebellar cGMP levels, which elevation is reduced or blocked by preadministration of anxiolytic compounds (Sethy and Oien (1991), Pharmacology Biochemistry & Behavior, vol. 39, pg. 379-382). Briefly, adult male CF-1 mice (25-30 g Harlan, Indianapolis, Ind.) are housed under a 12-hr light/dark cycle in a temperature and humidity controlled environment. Mice are habituated to the environment for at least 3 days and all studies are carried out between 9:00 AM and 12:00 noon to reduce the effects of diurnal fluctuations. Test mice are given a single intraperitoneal injection of test compound or control (vehicle is 3% DMSO, 20% emulphor stock, 10% lactic acid stock) and are sacrificed approximately 30 min. after dosing, using a beam of microwave radiation (microwave fixation system model GA5013; Gerling Applied Engineering, Modesto, Calif.) focused on the skull for 0.5 sec. at high power setting. This method preserves tissue cGMP content. After microwaving, a small piece (10-20 mg) of cerebellar cortex is quickly removed from the skull. The tissue is weighed and then homogenized in 2 ml of 1.0% perchloric acid. Tissue homogenate is kept on ice for 30 min followed by 5 min. in a boiling water bath. The homogenate is then centrifuged at 11,700 g for 20 min. 1 mL of supernatant is then acetylated with 40 μl of triethylamine and 20 μl of acetic anhydride, vortexed, and centrifuged at 13,000 g for 20 min at 4° C. Acetylated mouse cerebellum samples are stored at 4° C. pending cGMP analysis by radioimmunoassay with the cGMP ^125I Flash Plate radioimmunoassay test kit (PerkinElmer Life and Analytical Sciences, Boston, Mass.) on duplicate samples from each animal as per manufacturer's instructions.
For stressed mouse groups, 30 min. post injection, mice are subjected to a 1.0 mA foot-shock for 10 sec. in a Habitest Operant cage equipped with a modular shock floor (Habitest Modular Test System, Coulbourn Instruments, Allentown, Pa.). Mice are then sacrificed and cerebellar cortex samples are processed as described.
For each animal, cGMP levels are normalized to wet tissue weight and used to compute group averages and S.E.M. (typically 4-6 mice per group). All data are analyzed on the log scale to correct problems with heterogeneity of variance. Statistical analyses are performed using ANOVA followed by Dunnett's method to compare each treatment group to the vehicle group.

Male Sprague Dawley rats [1] = experiment: Formalin model of persistent pain; assay type: in vivo; conditions: formalin into hind paw
Method: The “formalin model” of persistent pain, particularly for inflammatory pain and neuropathic pain, is well known and can be used to test compounds for pain blocking and/or analgesic activity. (see Shibata M. et al., Pain (1989) 38: 347-352; and Tjolsen A. et al., Pain (1992) 51:5-17.)
Male Sprague Dawley rats (Harlan Labs, Indianapolis, Ind.) weighing between 200-250 g are maintained at constant temperature (21-23° C.) and light (12 hr. light/12 hr. dark), with free access to food and water for 7 days prior to testing. All testing is conducted during the light cycle after fasting over night and with the testing room temperature maintained at constant temperature (21-23° C.). […]
The animals are administered either vehicle or test compound and individually placed in holding cylinders. […] The cylinders are then placed on the load cells of the detection system and the response monitored continuously for 60 min. in 1-second bins (i.e. collections periods). As previously described by Jett and Michelson, the formalin-induced movements, “events,” detected by the system include licking and flinching the affected paw. […]
Data are evaluated by one-way analysis of variance (ANOVA) and the appropriate contrasts analyzed by the Dunnett ‘t’ test for 2-sided comparisons using JMP statistical analysis program (v5.1.1 SAS Institute Inc., Cary, N.C.). […]

5-HT7 receptor = molecular target: T1, 5-HT7 receptor (Homo sapiens, UniProt P34969); experiment: Functional antagonist assay: measurement of cAMP formation; assay type: cell-based
T1 construct: expressed in transfected cells; host or cells: AV-12 cells
Method: For cAMP functional assays, the 5-HT7-expressing cells from above are grown in 150 cm^2 flasks and processed essentially as follows. The media is aspirated from the flasks and cells are washed with 1 mL PBS. The cells are trypsinized and resuspended in complete media. A sample of the cells is counted and the remainder is centrifuged as above for 3 min. The resulting cell pellet is resuspended in PBS at a concentration of 1×10^6 cells per mL and used directly in the cAMP assay as described.
The 5-HT7 receptor is functionally coupled to a G-protein as measured by the ability of serotonin and serotonergic drugs to stimulate cAMP production in CHO cells transfected with the 5-HT7 receptor. (Ruat, et al., Proceedings of the National Academy of Sciences (USA), 90:8547-8551, 1993.) Accordingly, functional receptor activity can be measured by measuring adenylate cyclase activity using a commercially available cell-based, homogeneous, time resolved fluorescence assay kit, as for example the kit produced by Cisbio-US, Inc. (Bedford, Mass.). Essentially, and using the protocol and reagents provided by the manufacturer, approximately 20,000 human 5-HT7 receptor-expressing AV-12 cells (as described above) are used with test compound dose concentrations in the range described for the binding assay. […] A cAMP standard curve is also run in every experiment. After the assay plates are read in an Envision™ instrument (Perkin-Elmer, Wellesley Mass.), the data is normalized to the standard curve and converted to percent inhibition for data analysis as described above for the receptor binding assay results. The Kb (nM) is calculated as a measure of the antagonist potency of the compound.

[2] = system: male Harlan Sprague-Dawley rats; experiment: Animal model of dural plasma protein extravasation (PPE); assay type: in vivo; conditions: saline controls approximately 2.0, full prevention approximately 1.0
Description: The dural plasma protein extravasation model is an established model for migraine. The ability of a test compound to reduce extravasation of plasma proteins into the dura under assay conditions is considered indicative of the compound's ability to reduce or prevent the dural inflammation thought to be symptomatic of migraine. (see Johnson, K. W., et al., Neuroreport, 8 (1997) 2237-2240.)
To assay compounds for their ability to reduce or prevent dural plasma protein extravasation, male Harlan Sprague-Dawley rats (250-350 g) are anesthetized with sodium pentobarbital (65 mg/kg, i.p.) and placed in a stereotaxic frame (David Kopf Instruments) with the incisor bar set at −2.5 mm. Following a midline sagital scalp incision, 2 pairs of bilateral holes are drilled through the skull (3.2 mm posterially, 1.8 and 3.8 mm laterally, all coordinates referenced to bregma). […]
The amount of FITC-BSA for each sample is quantified with a fluorescence microscope (Zeiss) equipped with a grating monochromator, a spectrophotometer, and a computer driven stage. Fluorescence measurements are taken at 25 points in a 5×5 grid in 500 μm steps on each dural sample with an excitation wavelength of approximately 490 nm and emission intensity measured at approximately 535 nm. The mean and standard deviation of the 25 measurements are determined. […]

Male Sprague Dawley rats [3] = experiment: L5/L6 nerve ligation model (Chung model) of persistent pain; assay type: in vivo; conditions: i.p.
Method: The L5/L6 Nerve Ligation model (Chung model) is a well established model for persistent pain, specifically neuropathic pain. Surgery is performed on male Sprague Dawley rats (Harlan, Indianapolis, Ind.), weighing 150-200 g at the time of surgery as previously described (Kim and Chung, 1992). Briefly, neuropathic injury is produced by tightly ligating the left L5 and L6 spinal nerves under gas anesthesia with a mixture of isoflurane (3% for induction and 2% for maintenance) and O2. Following surgery, development of neuropathic pain is evaluated daily by measuring mechanical sensitivity of the injured paw to von Frey filaments with incremental bending forces (0.5-15 g) as described by (Chaplan et al., 1994). […] Test drug or vehicle is administered i.p. and the mechanical threshold for paw flinching is measured at 0.5, 1, 2, 3, 4 and 6 hr. after dosing. Measurement of the mechanical threshold for paw flinching is also done prior to surgery (preoperative control). Data are expressed as the threshold force required to elicit a response (g) as means±S.E.M. (standard error of the mean).

T1 sequence (P34969 whole entry): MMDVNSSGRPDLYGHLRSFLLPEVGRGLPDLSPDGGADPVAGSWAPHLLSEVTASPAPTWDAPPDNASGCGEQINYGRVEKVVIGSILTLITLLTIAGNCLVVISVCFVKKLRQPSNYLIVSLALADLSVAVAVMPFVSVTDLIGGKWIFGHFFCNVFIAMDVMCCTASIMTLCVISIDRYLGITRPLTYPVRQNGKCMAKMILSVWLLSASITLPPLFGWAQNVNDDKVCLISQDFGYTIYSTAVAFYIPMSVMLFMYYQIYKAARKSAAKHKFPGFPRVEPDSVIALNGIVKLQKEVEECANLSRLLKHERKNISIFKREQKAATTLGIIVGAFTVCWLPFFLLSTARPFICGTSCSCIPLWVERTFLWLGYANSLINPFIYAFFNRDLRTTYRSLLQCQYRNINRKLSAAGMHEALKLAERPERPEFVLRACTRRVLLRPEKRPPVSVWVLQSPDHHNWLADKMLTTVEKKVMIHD

Cc1nnc2n1-c1ccc(Cl)cc1C(c1ccccc1)=NC2 [Alprazolam, alprazolam]
cerebellar cGMP, stress (adult male CF-1 mice; 1 mg/kg (ip, 30 min)/stress): 60* percent

CNC1=Nc2ccc(Cl)cc2C(c2ccccc2)=[N+]([O-])C1 [Chlordiazepoxide, chlordiazepoxide]
cerebellar cGMP, stress (adult male CF-1 mice; 10 mg/kg (ip, 30 min)/stress): 129% | cerebellar cGMP, stress (adult male CF-1 mice; 30 mg/kg (ip, 30 min)/stress): 106* percent | cerebellar cGMP, stress (adult male CF-1 mice; 60 mg/kg (ip, 30 min)/stress): 71* percent

Cc1c(CN2CCN(c3nccnc3-c3ccc(F)cc3)CC2)cnn1-c1ccccc1.Cl [Example 19, 4-(5-methyl-1-phenyl-1H-pyrazol-4-ylmethyl)-3′-(4-fluorophenyl)-3,4,5,6-tetrahydro-2H-[1,2′]bipyrazine hydrochloride]
formalin-induced events, early and late phases (Male Sprague Dawley rats [1]): active on both the early and late phases

Cl.Cn1cc(CN2CCN(c3cccnc3-c3ccc(F)cc3)CC2)cn1 [Example 74, 1-[2-(4-Fluoro-phenyl)-pyridin-3-yl]-4-(1-methyl-1H-pyrazol-4-ylmethyl)-piperazine hydrochloride]
Kb (5-HT7 receptor; antagonist potency, cAMP, 5-HT7-expressing AV-12 cells): ~44 nM | antagonist character at the 5-HT7 receptor (5-HT7 receptor; cAMP formation): full antagonist | inhibition (5-HT7 receptor; cAMP formation, 5-HT7-expressing AV-12 cells): about 96%

Cc1c(CN2CCN(c3nccnc3-c3cccc(F)c3)CC2)cnn1C.Cl [Example 127, 4-(1,5-Dimethyl-1H-pyrazol-4-ylmethyl)-3′-(3-fluoro-phenyl)-3,4,5,6-tetrahydro-2H-[1,2′]bipyrazinyl hydrochloride]
ratio of extravasation in the dura, stimulated side over unstimulated side [2]: about 1.16

Cc1ccc(-c2nccnc2N2CCN(Cc3cn(C)nc3C)CC2)cc1.O=C(O)/C=C/C(=O)O [Example 186, 4-(1,3-Dimethyl-1H-pyrazol-4-ylmethyl)-3′-(4-methylphenyl)-3,4,5,6-tetrahydro-2H-[1,2′]bipyrazine fumarate]
threshold force required to elicit a response (mechanical allodynia) (Male Sprague Dawley rats [3]): active | cerebellar cGMP, stress (adult male CF-1 mice; 3 mg/kg (ip, 30 min)/stress): 278% | cerebellar cGMP, stress (adult male CF-1 mice; 10 mg/kg (ip, 30 min)/stress): 264% | cerebellar cGMP, stress (adult male CF-1 mice; 30 mg/kg (ip, 30 min)/stress): 234% | cerebellar cGMP, stress (adult male CF-1 mice; 60 mg/kg (ip, 30 min)/stress): 117* percent

CC1CCN(CC[C@H]2CCCN2S(=O)(=O)c2cccc(O)c2)CC1 [SB-269970]
cerebellar cGMP, stress (adult male CF-1 mice; 3 mg/kg (ip, 30 min)/stress): 270% | cerebellar cGMP, stress (adult male CF-1 mice; 10 mg/kg (ip, 30 min)/stress): 225% | cerebellar cGMP, stress (adult male CF-1 mice; 30 mg/kg (ip, 30 min)/stress): 171* percent
